In brackets after ≈: the same amount, converted by molar mass. Like-named read-outs stand apart in the source and are kept apart here.
Columns and labels:
Vibrio cholerae SG24 (1) = test: Broth microdilution MIC/MBC; assay type: cell-based; settings: for MBC / MIC: Vibrio cholerae; for MIC: 24 h; for MBC/MIC: Vibrio cholerae SG24 (1)
Description: (§1) A total of six bacterial strains were tested for their susceptibility to compounds and these strains were taken from our laboratory collection (kindly provided by Dr. T. Ramamurthy, NICED, Kolkata). Among the clinical strains of Vibrio cholerae used in this study, strains NB2 and SG24(1) belonged to O1 and O139 serotypes, respectively. […] The bacterial strains were maintained on agar slant at 4 °C and subcultured on a fresh appropriate agar plates 24 h prior to any antibacterial test. The Mueller Hinton Agar (MHA) was used for the activation of bacteria. The Mueller Hinton Broth (MHB) and nutrient agar (Hi-Media) were used for the MIC and MBC determinations respectively.
(§2) MIC values were determined by a broth micro-dilution method as described earlier [14] with slight modifications. […] Then, 100 μl of each concentration was added in each well (96-well microplate) containing 95 μl of MHB and 5 μl of inoculums (at 1.5 × 10^6 CFU/ml) for final concentrations varying from 0.25–512 μg/ml. […] The plates were covered with sterile lids, then the contents of each well were mixed using a shaker and incubated at 35 °C for 24 h. […] MIC values were defined as the lowest sample concentrations that prevented this change in color indicating an inhibition of visible growth. Viable microorganisms reduced the yellow dye to a pink color. […] The lowest concentrations that yielded no growth after this subculturing were taken as the MBC values [15]. All the analyses were carried out in triplicate.

Vibrio cholerae CO6 = test: Broth microdilution MIC/MBC; assay type: cell-based; settings: for MBC / MBC/MIC: CO6; for MIC: CO6, 24 h
Description: as §1, §2

Vibrio cholerae NB2 = test: Broth microdilution MIC/MBC; assay type: cell-based; settings: for MBC / MBC/MIC: NB2
Description: as §1, §2

Vibrio cholerae PC2 = test: Broth microdilution MIC/MBC; assay type: cell-based; settings: for MBC / MBC/MIC: PC2
Description: as §1, §2

Shigella flexneri SDINT = test: microbe, parasite or virus in culture; assay type: cell-based
Description: as §1, §2

[1] = tested on: Staphylococcus aureus ATCC 25923; test: microbe, parasite or virus in culture; assay type: cell-based; settings: for MBC / MIC: Staphylococcus aureus; for MBC: ATCC25923; for MIC: ATCC25923, 24 h
Description: as §1, §2

[2] = tested on: Vibrio cholerae, Shigella flexneri and Staphylococcus aureus; test: Broth microdilution MIC/MBC, summary over all six tested strains; assay type: cell-based; settings: for MIC: read-out: antibacterial activity class (pure compounds)
Description: as §1, §2

[3] = DPPH free radical scavenging assay; settings: 30 min, room temperature, 517 nm
Description: The free radical scavenging activity of extracts as well as most of their isolated compounds was performed according to Brand-Williams et al. with slight modifications. Briefly, different concentrations (10 to 2000 μg/ml) of extracts/compounds and vitamin C (positive control) were thoroughly mixed with 3 ml of methanolic DPPH solution (20 mg/l) in test-tubes and the resulting solution was kept standing for 30 min at room temperature before the optical density (OD) was measured at 517 nm. The percentage radical scavenging activity was calculated from the following formula: % scavenging [DPPH] = [(A0–A1)/A0] × 100 [16]. Where A0 was the absorbance of the negative control (methanolic DPPH solution) and A1 was the absorbance in the presence of the samples. IC50 value was determined from the graph obtained using standard vitamin C by using the “y = mx + c” formula from the slope of the graph. All the analyses were carried out in triplicate.

[4] = Gallic acid equivalent antioxidant capacity (GAEAC) assay; settings: ABTS/laccase, 420 nm, 240 s
Description: The GAEAC test was done as previously described [17] with slight modifications. In a quartz cuvette, to 950 μl acetate buffer (pH =5.0, 100 mM), the following were added: 20 μl laccase (1 mM stock solution), 20 μl test sample, 10 μl ABTS (2,2’-azinobis(3-ethylbenzothiazoline-6-sulfonic acid) (74 mM stock solution). The laccase were purified from Sclerotinia sclerotiorum according to the protocol described [18]. The sample concentrations in the assay mixture were 800, 400, 200, 100, 10 μg/ml for the extracts and 200, 100, 50, 25, 125.5 μg/ml for the isolated compounds. The content of the generated ABTS^●+ radical was measured at 420 nm after 240 s reaction time and was converted to gallic acid equivalents by the use of a calibration curve (Pearson’s correlation coefficient: r = 0.996) constructed with 0, 4, 10, 14, 28, 56, 84 μM gallic acid standards rather than Trolox. Experiments were done in triplicate.

| SMILES | MBC (Vibrio cholerae SG24 (1)) [µg/mL] | MIC (Vibrio cholerae SG24 (1)) [µg/mL] | MBC (Vibrio cholerae CO6) [µg/mL] | MBC/MIC (Vibrio cholerae CO6) | MIC (Vibrio cholerae CO6) [µg/mL] | MBC (Vibrio cholerae NB2; Vibrio cholerae) [µg/mL] | MBC/MIC (Vibrio cholerae NB2; Vibrio cholerae) | MIC (Vibrio cholerae NB2; Vibrio cholerae, NB2, 24 h) [µg/mL] | MBC (Vibrio cholerae PC2; Vibrio cholerae) [µg/mL] | MBC/MIC (Vibrio cholerae PC2; Vibrio cholerae) | MIC (Vibrio cholerae PC2; Vibrio cholerae, PC2, 24 h) [µg/mL] | MBC/MIC (Shigella flexneri SDINT) | MBC (Shigella flexneri SDINT; Shigella flexneri) [µg/mL] | MIC (Shigella flexneri SDINT; Shigella flexneri, 24 h) [µg/mL] | MBC/MIC [1] | MBC [1] [µg/mL] | MIC [1] [µg/mL] | MIC [2] [µg/mL] | other results |
| --- | --- | --- | --- | --- | --- | --- | --- | --- | --- | --- | --- | --- | --- | --- | --- | --- | --- | --- | --- |
| COC(=O)C1=COC(OC2OC(CO)C(O)C(O)C2O)C2C(COC(=O)C3=COC(OC(C)=O)C4C(C)CCC34)=CCC12 (stereo not drawn) [Compound 5a, canthiumoside 5a] | > 256 | 256 (≈ 419 µM) | 256 (≈ 419 µM) | 2 | 128 (≈ 210 µM) | 128 (≈ 210 µM) | 1 | 128 (≈ 210 µM) | 256 (≈ 419 µM) | 2 | 128 (≈ 210 µM) | 1 | 128 (≈ 210 µM) | 128 (≈ 210 µM) | 1 | 128 (≈ 210 µM) | 128 (≈ 210 µM) | > 100 |  |
| COC(=O)C1=COC(OC2OC(CO)C(O)C(O)C2O)C2C1CCC2(C)O (stereo not drawn) [Compound 8, mussaenoside] | > 256 | 256 (≈ 656 µM) | 256 (≈ 656 µM) | 1 | 256 (≈ 656 µM) | > 256 |  | 128 (≈ 328 µM) | 256 (≈ 656 µM) | 2 | 128 (≈ 328 µM) | 2 | 256 (≈ 656 µM) | 128 (≈ 328 µM) | 2 | 128 (≈ 328 µM) | 64 (≈ 164 µM) | > 100 |  |
| COC(=O)C1=COC(OC2OC(CO)C(O)C(O)C2O)C2C(COC(=O)C3=COC(OC4OC(CO)C(O)C(O)C4O)C4C(COC(C)=O)=CCC34)=CCC12 (stereo not drawn) [Compound 3, canthiumoside 3] |  | > 256 | 256 (≈ 325 µM) | 2 | 128 (≈ 163 µM) | 256 (≈ 325 µM) | 1 | 256 (≈ 325 µM) | > 256 |  | 256 (≈ 325 µM) |  | > 256 | 256 (≈ 325 µM) |  | > 256 | 256 (≈ 325 µM) | > 100 | tested organisms inhibited [2]: 83.33% |
| COC(=O)C1=CO[C@@H](O)[C@H]2[C@@H]1[C@H](O)C[C@]2(C)O [compound 6] | 256 (≈ 1050 µM) | 128 (≈ 524 µM) | 256 (≈ 1050 µM) |  | 256 (≈ 1050 µM) | 256 (≈ 1050 µM) |  | 256 (≈ 1050 µM) | 256 (≈ 1050 µM) |  | 128 (≈ 524 µM) |  | 64 (≈ 262 µM) | 32 (≈ 131 µM) |  | 64 (≈ 262 µM) | 32 (≈ 131 µM) | > 100 |  |
| COC(=O)C1=COC(O)C2C(COC(=O)C3=COC(OC4OC(CO)C(O)C(O)C4O)C4C(COC(C)=O)=CCC34)=CCC12 (stereo not drawn) [Compound 2, canthiumoside 2] | > 256 | 256 (≈ 410 µM) | 256 (≈ 410 µM) | 2 | 128 (≈ 205 µM) | 128 (≈ 205 µM) | 1 | 128 (≈ 205 µM) | 256 (≈ 410 µM) | 1 | 256 (≈ 410 µM) | 2 | 256 (≈ 410 µM) | 128 (≈ 205 µM) | 1 | 64 (≈ 102 µM) | 64 (≈ 102 µM) | > 100 |  |
| COC(=O)C1=CO[C@@H](O)[C@H]2[C@@H]1CC[C@]2(C)O [Compound 7, linearin] |  |  |  |  |  |  |  |  |  |  |  |  |  |  |  |  |  |  | MIC (range over the tested bacteria) ([2]; range over all tested strains): 8 to 64 µg/mL |
| O=C1O[C@H]([C@@H](O)CO)C(O)=C1O [vitamin C, reference compound] |  |  |  |  |  |  |  |  |  |  |  |  |  |  |  |  |  |  | EC50 (concentration scavenging 50% of DPPH radical) [3]: 1.74 µg/mL |
| CC1(C)S[C@@H]2[C@H](NC(=O)[C@H](N)c3ccccc3)C(=O)N2[C@H]1C(=O)O [Ampicillin, reference compound] | 16 (≈ 45.8 µM) | 16 (≈ 45.8 µM) | 16 (≈ 45.8 µM) | 1 | 16 (≈ 45.8 µM) | > 512 |  | > 512 | > 512 |  | > 512 |  | > 512 | > 512 | 1 | 8 (≈ 22.9 µM) | 8 (≈ 22.9 µM) |  | MBC/MIC (Vibrio cholerae SG24 (1)): 1; MIC (Vibrio cholerae NB2; Vibrio cholerae NB2, 35 °C, 24 h): not active; MIC (Vibrio cholerae PC2; Vibrio cholerae PC2, 35 °C, 24 h): not active; MIC (Shigella flexneri SDINT): not active |
| COC(=O)C1=CO[C@@H](O)[C@@H]2C(COC(=O)C3=CO[C@@H](O)[C@@H]4C(COC(C)=O)=CC[C@H]34)=CC[C@H]12 [Compound 1, canthiumoside 1] | 128 (≈ 277 µM) | 64 (≈ 138 µM) | 64 (≈ 138 µM) | 1 | 64 (≈ 138 µM) | 64 (≈ 138 µM) | 1 | 64 (≈ 138 µM) | 64 (≈ 138 µM) | 1 | 64 (≈ 138 µM) | 2 | 64 (≈ 138 µM) | 32 (≈ 69.2 µM) | 1 | 32 (≈ 69.2 µM) | 32 (≈ 69.2 µM) | 10 to 100 (≈ 21.6 to 216 µM) | MBC/MIC (Vibrio cholerae SG24 (1)): 2; EC50 (concentration scavenging 50% of DPPH radical) [3]: 2.03 µg/mL; GAEAC (gallic acid equivalent antioxidant capacity) [4]: 79.82 µg/mL; GAEAC (gallic acid equivalent antioxidant capacity) ([4]; listed as Canthiumoside 1): 79.82 to 92.35 µg/mL |
| COC(=O)C1=CO[C@@H](O[C@@H]2O[C@H](CO)[C@@H](O)[C@H](O)[C@H]2O)[C@H]2[C@@H]1[C@H](O)C[C@]2(C)O [Compound 9, shanzhiside methyl ester] | 128 (≈ 315 µM) | 128 (≈ 315 µM) | > 256 |  | 128 (≈ 315 µM) | 128 (≈ 315 µM) | 1 | 128 (≈ 315 µM) | 256 (≈ 630 µM) | 1 | 256 (≈ 630 µM) | 2 | 256 (≈ 630 µM) | 128 (≈ 315 µM) | 2 | 256 (≈ 630 µM) | 128 (≈ 315 µM) | > 100 | MBC/MIC (Vibrio cholerae SG24 (1)): 1 |
| COC(=O)C1=COC(OC2OC(CO)C(O)C(O)C2O)C2C(COC(=O)C3=COC(OC4OC(CO)C(O)C(O)C4O)C4C(CO)=CCC34)=CCC12 (stereo not drawn) [Compound 4, canthiumoside 4] |  |  |  |  |  |  |  |  |  |  |  |  |  |  |  |  |  |  | EC50 (concentration scavenging 50% of DPPH radical) [3]: 178.57 µg/mL; GAEAC (gallic acid equivalent antioxidant capacity) [4]: 22.63 µg/mL |
| COC(=O)C1=CO[C@@H](O)[C@H]2[C@@H]1CC[C@]2(C)O [compound 7] | 64 (≈ 280 µM) | 32 (≈ 140 µM) | 128 (≈ 561 µM) |  | 64 (≈ 280 µM) | 32 (≈ 140 µM) |  | 32 (≈ 140 µM) | 32 (≈ 140 µM) |  | 32 (≈ 140 µM) |  | 16 (≈ 70.1 µM) | 16 (≈ 70.1 µM) |  | 8 (≈ 35.1 µM) | 8 (≈ 35.1 µM) | 10 to 100 (≈ 43.8 to 438 µM) |  |
